# Results as given in patent US9233915B2, “Polyunsaturated fatty acid monoglycerides, derivatives, and uses thereof” (SCF PHARMA INC., priority 2007, dated 2016).
# Experiments:
# A549 cells = assay: in vivo tumor xenograft, A549 in CD-1 nude mice; conditions: per os 618 mg/kg daily from the day after cell inoculation; vs control (corn oil)
# Protocol: In vivo tumor xenograft experiments. Male and female CD-1 nude mice were obtained from Charles River Laboratories (Montreal, QC, Canada). All studies involving mice were approved by the institutional animal care committee. Human A549 or HCT-116 xenografts were established in 4-week-old CD-1 nude mice. Mice were subcutaneously inoculated with 0.2 ml of a solution of 1×10^6 A549 or HCT-116 cells on the right flank. Mice were randomly assigned into 2 groups, control (untreated) and compound 1, 5 or 6 treated (n=6 per group). Compound 1, 5 or 6 were administrated per os (618 mg/kg) daily following cell inoculation. Tumor volumes (V) were calculated using the formula: V=(a×b2)/2, where “a” is the largest superficial diameter and “b” the smallest.
# [1] = system: A549 human lung cancer cell line; assay: cell growth assay (trypan blue cell count) on A549; assay type: cell-based; conditions: 48 h, read-out: growth inhibition of the cancer cells
# Protocol: (§1) The A549 and HCT-116 cells were maintained in RPMI 1640 or McCoy's 5A (Wisent, St-Bruno, QC, Canada) containing 10% FBS and 10 units/ml penicillin, 100 μg/ml streptomycin. Cells were grown in a 5% CO2 incubator at 37° C. Cells were untreated or treated with SCF compounds
# (§2) A predefined number of either A549 or HCT-116 cells were allowed to grow in 24 wells plates (1×10^4 cells/well) for 3 days until cells reached 70% confluence. Then, cells were starved in RPMI or McCoy's 5A medium without FBS for 8 h. Then, the culture medium was replaced with RPMI or McCoy's 5A+0.2% FBS and 3 μM of test compounds were added to each well. Culture media were changed every 24 h and cells were treated for 48 h. After 48, the medium was removed from the culture plates and 0.05% trypsin-EDTA was used to detach the cells from the surface of the culture plates. The harvested cells were counted, both the viable and dead ones, using a Countess Automated Cell Counter (Invitrogen Inc.). Briefly, for each condition an appropriated cell dilution was prepared from the harvested cells and an aliquot was mixed with an equal volume of 0.4% trypan blue, and 10 μl was transferred into each side of a Countess™ chamber slide. All concentrations tested were performed in triplicata and were representative of 5 independent experiments.
# [2] = human, in vivo
# Protocol: Controlled amount of boiled pasta was eaten after the 4 h time point. An initial blood sample (400 μl) was collected using a lancet at a fingertip into heparin tubes followed by samples at 1, 2, 3, 4, 5, 6, 7 and 8 hour after ingestion. Plasma was separated and immediately analysed for fatty acid composition.
# The relative bioavailability of fatty acids from composition 2 compared to fish oil is calculated with the formula:
# The AUC (calculates area under the curve for concentration vs. time data) is calculated using linear trapezoidal rule. […] The relative bioavailability of compound 1 and compound 5 is calculated with the same formula:
# HCT-116 cells = assay: in vivo tumor xenograft, HCT-116 in CD-1 nude mice; conditions: per os 618 mg/kg daily from the day after the tumor reach; vs control (corn oil)
# Protocol: In vivo tumor xenograft experiments. Male and female CD-1 nude mice were obtained from Charles River Laboratories (Montreal, QC, Canada). All studies involving mice were approved by the institutional animal care committee. Human A549 or HCT-116 xenografts were established in 4-week-old CD-1 nude mice. Mice were subcutaneously inoculated with 0.2 ml of a solution of 1×10^6 A549 or HCT-116 cells on the right flank. Mice were randomly assigned into 2 groups, control (untreated) and compound 1, 5 or 6 treated (n=6 per group). […] Tumor volumes (V) were calculated using the formula: V=(a×b2)/2, where “a” is the largest superficial diameter and “b” the smallest.
# [3] = system: HCT116 human colon cancer cell line; assay: cell growth assay (trypan blue cell count) on HCT116; assay type: cell-based; conditions: HCT-116, 48 h, read-out: growth inhibition of the cancer cells
# Protocol: as §1, §2
relative bioavailability of compound 1 compared to compound 5 [2],Structure (SMILES),tumor progression (tumor volume) (A549 cells),inhibition at 3 µM [1],tumor progression (tumor volume) (HCT-116 cells),inhibition at 3 µM [3]
–,CC/C=C\C/C=C\C/C=C\C/C=C\C/C=C\C/C=C\CCC(=O)OCC(O)CO (stereo not shown) [compound 5],tumor progression was significantly reduced,> 50%,–,–
2.20,CC/C=C\C/C=C\C/C=C\C/C=C\C/C=C\CCCCCC(=O)OCC(O)CO (stereo not shown) [compound 1],–,–,tumor progression was immediately stopped and tumor volume significantly decrease over time,> 50%
–,CC/C=C\C/C=C\C/C=C\C/C=C\C/C=C\CCCC(=O)OCC(O)CO (stereo not shown) [compound 6],–,–,tumor progression was immediately stopped and tumor volume slightly decrease over time,> 50%
